Measurements reported in patent US8389739B1, “Modulators of retinoid-related orphan receptor gamma” (Orphagen Pharmaceuticals, priority 2006, dated 2013).

How the values were obtained:
[1] = tested on: IL-17 release and TH-17 cells in lymph node cultures; assay: Lymph node cell cultures from PLP-immunized SJL/J mice, IL-17 ELISA and Th-17 FACS; type: cell-based
Protocol: FIGS. 13A-F. IL-17 levels in lymph node cells from mice immunized with myelin-derived peptides respond to cognate peptide antigens, IL-23 and RORγ ligands. (FIG. 13A) SJL/J mice were immunized by complete Freund's adjuvant (CFA) only or by Proteolipid Protein residues 139-151 (PLP139-151) emulsified in CFA. Lymph nodes were cultured for 3 days in with or without 40 μg/ml PLP in the presence or absence of OR-885. Culture media were analyzed by ELISA for IL-17. (FIGS. 13B-C) Lymph node cells from PLP-immunized SJL/J mice were cultured as before with the addition of 10 ng/ml IL-23 and 3 μM compounds. At the end of 1 day or 3 days in culture, Th-17 (CD4^+CD8^−IL17^+) cell frequency was measured by FACS (FIG. 13B) and compared to IL-17 levels in culture media (FIG. 13C). (FIGS. 13D-F) Lymph node cells from MOG35-55 immunized C57BL/6 mice were cultured for 3 days with 30 μg/ml MOG and/or 10 ng/ml IL-23. RORγ ligands were not added (FIG. 13D), or added at the beginning of the culture at a single concentration (FIG. 13E, 1 μM) or in multiple doses (FIG. 13F).
FIG. 14. Inhibition of IL-17 release in mouse lymph node cultures by the RORγ antagonist OR-885 can be reversed by the RORγ agonist OR-12872. The lymph node cells were culture in the presence of 10 ng/mL IL-23 and 40 μg/mL PLP for three days under identical conditions to FIG. 13 and IL-17 in the culture supernatant was measured by ELISA.
ELISA kits for mouse IL-17 and human IL-17 were from eBioscience (San Diego, Calif.). ELISA assays were performed following the manufacturer's protocol. Certain samples were diluted 20-fold to avoid maximization of enzymatic signals. For mouse IL-22 ELISA, antibodies and standards were from Antigenix America (Huntington Station, N.Y.) and accessory components were from eBioscience. The IL-22 assay protocol was similar to that of the IL-17 assays. […]

[2] = tested on: TH1 cell differentiation from naïve CD4+ T cells; assay: Differentiation of naïve CD4+ T cells with IL-12 (Th-1 protocol), IFN-γ staining by FACS; type: cell-based, mouse; conditions: for effect on TH1 cell differentiation: in the presence of IL-12
RORβ (human RORβ) = biological target: T1, RORβ (human RORβ) (Homo sapiens, UniProt Q92753); assay: Transcriptional assay of RORβ as GAL4 hybrid; type: cell-based; conditions: same format as the GAL4-RORγ assay
T1 construct: human RORβ (NR1F2, aa 201-459); expressed in transfected cells; host or cells: CHO cells, transient transfection
Protocol: This example also describes several additional tests that were commonly performed to confirm the authenticity of a hit to RORγ. These tests also verified the validity of the transcriptional and biochemical assays used. […] In some cases, close analogs of a confirmed hit were obtained by synthesis or purchase from a commercial source. The series of compounds related to the confirmed hit was then tested in the biochemical and transcriptional assays. The rank order of the potency of the compounds was then compared. […] The data imply in turn that the compounds are binding to the same binding pocket. […]
Four hours after transfection, cells were dislodged with trypsin and seeded into a 384-well plate at 8,000 cells/well using a Titertek Multidrop 384. […] After incubation for 2 hours at 37 degrees centigrade, the conversion of resazurin to resorufin was measured by fluorescence (excitation at 570 nm and emission at 615 nm). […] Percent viability was determined as 2 hour fluorescence, minus background at t=0 hours, normalized to DMSO controls. […] Luminescence is detected with a Victor 2-V plate reader (Perkin-Elmer) and normalized to luciferase activity of DMSO control wells alone.

[3] = Table 9, 3 μM (combination 3 μM each), 10 ng/ml IL-12, DMSO 36.3%

T1 sequence (Q92753 212-470): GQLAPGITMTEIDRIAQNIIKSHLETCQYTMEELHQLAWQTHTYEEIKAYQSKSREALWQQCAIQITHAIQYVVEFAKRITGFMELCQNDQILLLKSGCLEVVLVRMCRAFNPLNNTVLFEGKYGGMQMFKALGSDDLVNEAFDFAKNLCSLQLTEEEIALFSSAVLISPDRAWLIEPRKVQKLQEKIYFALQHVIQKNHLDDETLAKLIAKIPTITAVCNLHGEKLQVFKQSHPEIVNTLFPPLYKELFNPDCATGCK

COC(C)CCC(C)C1CCC2C3CC(O)C4CC(O)CCC4(C)C3CCC12C (centres unmarked) [OR-12872, 17-(4-Methoxy-1-methyl-pentyl)-10,13-dimethyl-hexadecahydro-cyclopenta[a]phenanthrene-3,6-diol]
reversal of antagonist suppression of IL-17 release ([1]; 10 ng/mL IL-23 and 40 μg/mL PLP, three days (FIG. 14)): reverses the suppressive effects of OR-885 on IL-17 release | Cell Frequency (%) Th-1 Protocol IFN-γ^+ [2, 3]: 41.4% | Cell Frequency (%) Th-1 Protocol IFN-γ^+ ([2]; Table 10, 1 μM, DMSO vehicle 29.7%): 30.8% | effect on TH1 cell differentiation ([2]; 3 μM): Neither 3 μM OR-1050 nor 3 μM OR-12872 had an effect on the frequency of TH1 cell differentiation

CCN(c1ccc(C(O)(C(F)(F)F)C(F)(F)F)cc1)S(=O)(=O)c1ccc([N+](=O)[O-])cc1 [OR-1050, N-Ethyl-4-nitro-N-[4-(2,2,2-trifluoro-1-hydroxy-1-trifluoromethyl-ethyl)-phenyl]-benzenesulfonamide]
Cell Frequency (%) Th-1 Protocol IFN-γ^+ [2, 3]: 37.4% | effect on TH1 cell differentiation ([2]; 3 μM): does not inhibit TH1 differentiation | effect on the transcription of RORβ (RORβ (human RORβ)): no effects

C[C@@H]1CC[C@@]2(OC1)O[C@H]1C[C@H]3[C@@H]4CC[C@H]5C[C@@H](O)CC[C@]5(C)[C@H]4C[C@@H](O)[C@]3(C)[C@H]1[C@@H]2C [OR-885, 5α,20α, 22α, 25D-SPIROSTAN-3β, 12β-DIOL]
induction of TH-17 cells (as a percentage of total live cells) ([1]; PLP, 10 ng/ml IL-23, 3 μM compounds (FIG. 13B)): block | PLP-stimulated release of IL-17 ([1]; lymph node cultures, 40 μg/ml PLP, 3 days): inhibited | Cell Frequency (%) Th-1 Protocol IFN-γ^+ ([2]; Table 10, 3 μM, DMSO vehicle 29.7%): 34.2%

O=S(=O)(c1ccccc1)N(CC(F)(F)F)c1ccc(C(O)(C(F)(F)F)C(F)(F)F)cc1 [Compound T0901317, N-(2,2,2-Trifluoro-ethyl)-N-[4-(2,2,2-trifluoro-1-hydroxy-1-trifluoromethyl-ethyl)-phenyl]-benzenesulfonamide, reference compound]
effect on the transcription of RORβ (RORβ (human RORβ)): no effects
